Results taken from US20260337253A1, “INHIBITION OF GUT BACTERIA” (priority 2025, published 2026).
Non-standard residues stand in square brackets, D forms with d. Residues, ends and D or L forms follow the SMILES beside them. *: point of attachment. boroGlu = O=C(O)CC[C@H](N*)B(O)O; Gly(cPr) = N[C@H](C(=O)O)C1CC1

Biological target: His6-CylA-27-412 (Enterococcus faecalis, UniProt A0A2P6AWB8)
Assay: In vitro co-operative pore formation assay (pyranine-encapsulated DOPC liposomes, mCylLS:mCylLL)
Assay type: biochemical
Excerpt: In vitro pore formation assay for determining inhibitor effectiveness with high sensitivity. The assay uses pore formation as an indicator of toxin maturation. […] Pore formation dissipates a pH gradient between the interior of the liposome and the surrounding buffer increasing pyranine fluorescence.
Within the liposomes was a buffer of lower pH (6.0), and therefore any pore formation or membrane disruption would result in an increase in internal pH, which increases the fluorescence signal of the pyranine. In this way, pyranine fluorescence can be correlated to toxin activation allowing for the determination of EC50 values.
To a well in a black 96-well plate (200 μL) was added 90 μL high pH buffer (5 mM MES, 5 mM Tricine, 5 mM NaCl, pH 7.4) containing CylA (4 nM final concentration). After adding inhibitor, the mixture was incubated at room temperature for 10 min then freshly prepared (no more than 2 days old) pyranine encapsulated DOPC liposomes were added such that the total DOPC concentration was 80 μM. […] The resulting curves were max-min normalized yielding the fraction of permeabilized liposomes. […] This experiment was performed in duplicate or triplicate for each inhibitor at each concentration. […] Errors presented are those calculated by Origin 7 during the fitting process.

Sequence of His6-CylA-27-412 (A0A2P6AWB8 entry or part of it): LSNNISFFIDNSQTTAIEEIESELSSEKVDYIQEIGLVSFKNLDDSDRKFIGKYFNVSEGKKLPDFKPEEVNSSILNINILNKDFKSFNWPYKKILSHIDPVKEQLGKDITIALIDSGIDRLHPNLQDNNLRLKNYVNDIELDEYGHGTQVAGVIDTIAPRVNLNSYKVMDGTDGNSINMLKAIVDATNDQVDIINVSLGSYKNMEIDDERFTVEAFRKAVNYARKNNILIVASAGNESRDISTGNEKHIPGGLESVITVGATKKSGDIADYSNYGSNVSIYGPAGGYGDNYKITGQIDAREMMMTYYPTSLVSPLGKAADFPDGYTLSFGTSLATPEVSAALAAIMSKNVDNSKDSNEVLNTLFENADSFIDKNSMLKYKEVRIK

## CC(=O)NCC(=O)N[C@@H](CC(=O)O)C(=O)N[C@H](C(=O)N[C@@H](CCC(N)=O)C(=O)N[C@@H](C)C(=O)N[C@@H](CCC(=O)O)B(O)O)C1CC1 [Compound 9, Ac-Gly-Asp-Cpg-Gln-Ala-Glu-BA] (Ac-GD[Gly(cPr)]QA-boroGlu)
  EC50: 12.5 ± 1.4 nM
